Results taken from patent US20260035363A1, “COMPOUNDS AND METHODS OF USE THEREOF AS ANTIBACTERIAL AGENTS” (priority 2019, published 2026).
Converted amounts (≈) assume the structure as drawn. Where two headings read alike, the source gives them in different places.

What was measured:
Assay type in all cases: cell-based
[1] = tested on: mitochondrial protein synthesis in HepG2 cells; test: Mitochondrial protein synthesis assay (COX-I to SDH-A ratio, In Cell ELISA); details: Homo sapiens, HepG2, 96 h, 4 days, ratio of COX-I to SDH-A levels, read-out: MPS IC50
Description: Mitochondrial Protein Synthesis Assay
Inhibition of mitochondrial protein synthesis was assessed in HepG2 cells by comparing the levels of two subunits of oxidative phosphorylation enzyme complexes, subunit I of Complex IV (COX-I) and the 70 kDa subunit of Complex II (SDH-A). COX-I is mitochondrial DNA encoded and SDH-A is nuclear DNA encoded. HepG2 cells were seeded in 96-well collagen coated plates at 8,000 cells per well and exposed to 2-fold serial dilutions of compounds from 100 μM to 6.25 μM. Microtiter plates were incubated for approximately 5 replication cycles (4 days) prior to assessment of protein levels using a kit as described by the manufacturer (ab110217 MitoBiogenesis In Cell ELISA Kit, Abcam, Cambridge, MA). Inhibition of mitochondrial protein synthesis was expressed as a ratio of COX-1 to SDH-A levels.

[2] = tested on: Mycobacterium tuberculosis (Mtb-GFP; H37Rv pMSP12::GFP); test: microbe, parasite or virus in culture; details: 168 h, pH 6.8, read-out: Mtb Glu MITC95, glucose carbon source, pH 6.8, 7-day growth, GFP fluorescence, lowest concentration inhibiting 95% of growth
[3] = tested on: Mycobacterium tuberculosis (Mtb-GFP; H37Rv pMSP12::GFP); test: microbe, parasite or virus in culture; details: 168 h, pH 6.8, read-out: Mtb Cho MITC95, cholesterol carbon source, pH 6.8, 7-day growth, GFP fluorescence, lowest concentration inhibiting 95% of growth

SMILES	IC50 [1] [µM]	MIC [2] [µM]	MIC [3] [µM]
CN1CC(CF)(S(=O)(=O)c2ccc(-c3ccc(C4=NO[C@@H](Cn5ccnn5)C4)cc3F)cc2)C1 [Example 25, 1-{[(5R)-3-{2-Fluoro-4′-[3-(fluoromethyl)-1-methylazetidine-3-sulfonyl][1,1′-biphenyl]-4-yl}-4,5-dihydro-1,2-oxazol-5-yl]methyl}-1H-1,2,3-triazole]	2.5	0.19 (≈ 0.0926 µg/mL)	0.09 (≈ 0.0439 µg/mL)
CN1CC(C)(S(=O)(=O)c2ccc(-c3ccc(C4=NO[C@@H](Cn5ccnn5)C4)c(F)c3F)cc2)C1 [Example 26, 1-({(5R)-3-[4′-(1,3-Dimethylazetidine-3-sulfonyl)-2,3-difluoro[1,1′-biphenyl]-4-yl]-4,5-dihydro-1,2-oxazol-5-yl}methyl)-1H-1,2,3-triazole]	28	0.39 (≈ 0.19 µg/mL)	0.39 (≈ 0.19 µg/mL)
CN1CC(C)(S(=O)(=O)c2ccc(-c3ccc(C4=NO[C@@H](CNC(=O)C5(C)CC5)C4)cc3F)cc2)C1 [Example 27, N-({(5R)-3-[4′-(1,3-Dimethylazetidine-3-sulfonyl)-2-fluoro[1,1′-biphenyl]-4-yl]-4,5-dihydro-1,2-oxazol-5-yl}methyl)-1-methylcyclopropane-1-carboxamide]	37	0.78 (≈ 0.39 µg/mL)	0.78 (≈ 0.39 µg/mL)
CN1CC(C)(S(=O)(=O)c2ccc(-c3ccc(C4=NO[C@@H](CNC(=O)C56CC(C5)C6)C4)cc3F)cc2)C1 [Example 28, N-({(5R)-3-[4′-(1,3-Dimethylazetidine-3-sulfonyl)-2-fluoro[1,1′-biphenyl]-4-yl]-4,5-dihydro-1,2-oxazol-5-yl}methyl)bicyclo[1.1.1] pentane-1-carboxamide]	62	1.56 (≈ 0.798 µg/mL)	0.78 (≈ 0.399 µg/mL)
CN=S1(=O)CCC(F)(c2c(F)cc(C3=NO[C@@H](CNC(C)=O)C3)cc2F)CC1 (stereo partly drawn) [Example 29, N-{[(5R)-3-{3,5-Difluoro-4-[4-fluoro-1-(methylimino)-1-oxo-1λ^6-thian-4-yl]phenyl}-4,5-dihydro-1,2-oxazol-5-yl]methyl}acetamide]	> 100	1.56 (≈ 0.651 µg/mL)	1.56 (≈ 0.651 µg/mL)
CN=S1(=O)CCN(c2c(F)cc(C3=NO[C@@H](Cn4ccnn4)C3)cc2F)CC1 [Example 31, 4-(2,6-Difluoro-4-{(5R)-5-[(1H-1,2,3-triazol-1-yl)methyl]-4,5-dihydro-l,2-oxazol-3-yl}phenyl)-1-(methylimino)-1λ^6-thiomorpholin-1-one]	> 100	4.69 (≈ 1.93 µg/mL)	5.47 (≈ 2.25 µg/mL)
CN1CC(S(=O)(=O)c2ccc(-c3ccc(C4=NO[C@@H](Cn5ccnn5)C4)cc3F)cc2)C1 [Example 32, 1-({(5R)-3-[2-Fluoro-4′-(1-methylazetidine-3-sulfonyl)[1,1′-biphenyl]-4-yl]-4,5-dihydro-1,2-oxazol-5-yl}methyl)-1H-1,2,3-triazole]	0.77	0.065 (≈ 0.0296 µg/mL)	0.09 (≈ 0.041 µg/mL)
CN1CC(S(=O)(=O)c2ccc(-c3c(F)cc(C4=NO[C@@H](CNS(C)(=O)=O)C4)cc3F)cc2)C1 [Example 33, N-({(5R)-3-[2,6-Difluoro-4′-(1-methylazetidine-3-sulfonyl)[1,1′-biphenyl]-4-yl]-4,5-dihydro-1,2-oxazol-5-yl}methyl) methanesulfonamide]	> 100	1.56 (≈ 0.779 µg/mL)	1.66 (≈ 0.829 µg/mL)
CN1CC(Oc2ccc(-c3c(F)cc(C4=NO[C@@H](Cn5ccnn5)C4)cc3F)cc2)C1 [Example 34, 1-{[(5R)-3-{2,6-Difluoro-4′-[(1-methylazetidin-3-yl)oxy][1,1′-biphenyl]-4-yl}-4,5-dihydro-1,2-oxazol-5-yl]methyl}-1H-1,2,3-triazole]	2.6	0.09 (≈ 0.0383 µg/mL)	0.09 (≈ 0.0383 µg/mL)
CN1CC(Oc2ccc(-c3ccc(C4=NO[C@@H](CO)C4)cc3F)cc2)C1 [Example 35, [(5R)-3-{2-Fluoro-4′-[(1-methylazetidin-3-yl)oxy][1,1′-biphenyl]-4-yl}-4,5-dihydro-1,2-oxazol-5-yl]methanol]	> 50	3.12 (≈ 1.11 µg/mL)	3.12 (≈ 1.11 µg/mL)
